{"source": "patent US11419913B2", "about": "“Pharmaceutical compositions for inhibiting inflammatory cytokines” (S.I.S. SHULOV INNOVATIVE SCIENCE LTD., priority 2018, dated 2022)", "key": {"[1]": {"test_system": "oxazolone-induced atopic dermatitis (AD) mouse models", "assay": "Oxazolone-induced atopic dermatitis mouse model, clinical lesions", "type": "in vivo", "protocol": "The effect of topical administration of ZEP3 (SEQ ID NO: 1), and its sodium salt form (ZEP3Na), and ZEP4 (SEQ ID NO: 2) was evaluated in oxazolone-induced atopic dermatitis (AD) mouse models. This model is widely used and well described in literature (Avci et al. 2013 Expert Opin Drug Discov. 8, 331-355; Petersen T. K. 2006, Basic Clin. Pharmacol. Toxicol. 99, 104-115) as an accepted animal model for evaluating drugs for AD therapy in humans."}, "[2]": {"assay": "Oxazolone-induced atopic dermatitis mouse model, tolerability and bodyweights", "method": "Method: Animals were sensitized by topical administration of oxazolone 2% in ethanol on the back at Day 0 after shaving and depilation of the animals (sensitization phase). Then a challenge was performed one week later by topical administration of oxazolone 1% in ethanol on the back and on right ear every 2 days at 10 occasions namely for total 3 weeks. The tested compounds were applied during the challenge phase every 2 days via the topical route as ready to use cream formulations. The surface of application was the same as for challenge (back+ear). 100 μL were deposited on the back and the back was smoothly massaged. Then, remaining formulation on finger glove was deposited on the internal face of the ear. Every other day, back skin and ears thickness were measured using caliper; and the following clinical scores were recorded from back skin: erythema and scaling. Animals were also weighed every other day (approximate bodyweights of a mouse at startup is about 20 g).\nThe formulations used for topical administration of the tested compound were: ZEP3 1% cream having pH 7.1 and comprising: Propylene glycol, Polysorbate 80, Edetate Disodium, Silicon dioxide (syloid), Methylparaben, White petrolatum, Isopropyl Myristate, Cetyl Alcohol and Glyceryl Monostearate. ZEP3Na 1% cream having pH 8.0 and comprising: Propylene glycol, Polysorbate 80, Edetate Disodium, Silicon dioxide (syloid), Methylparaben, White petrolatum, Isopropyl Myristate, Cetyl Alcohol and Glyceryl Monostearate. ZEP4 1% cream having pH 4.5 and comprising: Propylene glycol, Glycerin, Polysorbate 80, EDTA Disodium, Xanthan Gum, Silicon dioxide (syloid), Methylparaben, White petrolatum, Isopropyl Myristate, Cetyl Alcohol, Stearyl Alcohol, and Glyceryl Monostearate (kolliwax)."}, "CMC type arthritis": {"test_system": "CMC type arthritis", "assay": "Treatment of CMC arthritis of the big toe in a subject", "type": "in vivo, human", "conditions": "0.5% cream applied on the swollen area 5 times a day", "from_the_text": "Their toe was swollen, red, and so painful that it prevented them from walking. ZEP3 sodium salt at 0.5% cream was applied on the swollen area 5 times a day."}, "physchem": {"assay": "physchem", "conditions": "water"}, "TNF alpha": {"test_system": "TNF alpha", "assay": "TNF alpha secretion in LPS treated human keratinocytes (ELISA)", "type": "cell-based", "conditions": "for TNFα: ZEP3Na without DMSO; for Fold Change: refers to TNF-α concentration in sample #2; for % Inhibition: vs corresponding control group without peptide", "protocol": "Methods: SCCE020 cells (EpiGRO™ Human Epidermal Keratinocytes) were grown in complete growth medium (EpiGRO™ Human Keratinocytes Complete Medium; Millipore Cat. #SCMK001) for 4 passages. At passage 5, cells were seeded (3*10^5 cells/well) in triplicates in a volume of 1 ml complete growth medium per well. Additional 3 control wells contained only medium without cells. Upon adherence, cell medium was replaced by basal medium containing L-Glutamine without supplements (starvation medium) and cells were starved overnight. The next day, 24 hours after seeding, the cells were treated with ZEP3 or ZEP3Na or appropriate diluent (PBS or DMSO). After 4 hours of incubation, LPS (from E. Coli 055: B5; Sigma Cat. #L6529-1MG) was added to the wells in final concentration of 20 or 30 μg/ml.\nCells were incubated for 24 hours in tissue culture incubator. After collecting cell supernatants from all wells, cells from treatment groups: 1, 2, 3, 8, 9, 10, 13, 14 (without DMSO groups) were pelleted and stored at −80° C. for further analyses. The cells were collected from as following: upon supernatants collection, the wells were rinsed with trypsin, then incubated with trypsin until they detached from the plate surface, centrifuged, washed with PBS and stored as a cell pellet. TNF-α concentration in the supernatants was measured by ELISA (Quantikine HS ELISA; R&D Systems Cat. #HSTA00D), in 5 replicates.\nTNF alpha concentration in the samples was calculated according to the standard curve trend line equation: =0.063x+0.1718. Percent inhibition of TNF alpha production was calculated in each treatment group in comparison to the corresponding control group (same conditions, without peptide)."}, "[3]": {"conditions": "peptide 0.02 mg/ml, LPS 20 μg/ml"}, "[4]": {"conditions": "peptide 0.2 mg/ml, LPS 20 μg/ml"}, "[5]": {"conditions": "peptide 0.2 mg/ml, LPS 30 μg/ml"}, "[6]": {"conditions": "peptide 0.4 mg/ml, LPS 20 μg/ml"}}, "note": "Where a name gives a salt, the structure may show the parent alone. Where a SMILES comes first, the peptide text is derived from it. [ ]: non-standard residue; d: D form. The star is where a group is joined. pGlu = O=C1CC[C@@H](C(=O)O)N1; Octanoyl = CCCCCCCC(=O)*"}
{"molecule": "C[C@H]1C[C@H]2[C@@H]3CCC4=CC(=O)C=C[C@]4(C)[C@@]3(F)[C@@H](O)C[C@]2(C)[C@@]1(O)C(=O)CO", "note": "[Betamethasone, reference compound]", "values": [{"measurement": "Back skin thickness decrease", "setting": "[1]; day 28, topical, 2.5 mg/kg", "result": 40, "unit": "%"}, {"measurement": "bodyweight loss", "setting": "[2]; topical, 2.5 mg/kg", "result": "8-10%"}]}
{"molecule": "CCCCCCCC(=O)NCCCC[C@H](NC(=O)[C@H](Cc1c[nH]c2ccccc12)NC(=O)[C@H](CC(N)=O)NC(=O)[C@@H]1CCC(=O)N1)C(=O)O", "note": "[ZEP3Na, pGlu-Asn-Trp-Lys(Octanoyl)-OH.nNa] ([pGlu]NWK(Octanoyl)-OH)", "values": [{"measurement": "time to relief reported by the subject", "setting": "CMC type arthritis", "result": "within one day"}, {"measurement": "time to resolution of the condition", "setting": "CMC type arthritis", "result": "3 to 4", "unit": "days"}, {"measurement": "Scaling: period of reduction", "setting": "[1]; 1% cream topical, 50 mg/kg, scaling score of back skin", "result": "from days 14 to 24"}, {"measurement": "Right ear thickness, significant difference in comparison to control", "setting": "[1]; days 18, 20 and 22", "result": "−18.4 to −22.7", "unit": "%"}, {"measurement": "Erythema scoring: days with a significant difference", "setting": "[1]; vs control group", "result": "day 24"}, {"measurement": "total score: days with significant difference", "setting": "[1]; vs control group", "result": "days 14, 18, 20 and 22"}, {"measurement": "solubility", "setting": "physchem", "result": 50, "unit": "mg/mL"}, {"measurement": "tolerability", "setting": "[2]; 50 mg/kg topical to atopic dermatitis induced mice", "result": "well tolerated"}, {"measurement": "Bodyweights in comparison to the excipient", "setting": "[2]; day 8 to day 28", "result": "behaved normally"}, {"measurement": "TNF alpha levels / production in LPS treated human keratinocytes (in words)", "setting": "TNF alpha; compared with cells stimulated with LPS alone", "result": "dose dependent inhibition"}, {"measurement": "TNFα", "setting": "TNF alpha; peptide 0.02 mg/ml, LPS 20 μg/ml, ZEP3 in 0.025% DMSO", "result": 9.2, "unit": "pg/mL"}, {"measurement": "Fold Change", "setting": "TNF alpha; [3]", "result": 3.3}, {"measurement": "% Inhibition", "setting": "TNF alpha; [3]", "result": 26, "unit": "%"}, {"measurement": "TNFα", "setting": "TNF alpha; peptide 0.2 mg/ml, LPS 20 μg/ml, ZEP3 in 0.05% DMSO", "result": 6.7, "unit": "pg/mL"}, {"measurement": "Fold Change", "setting": "TNF alpha; [4]", "result": 2.4}, {"measurement": "% Inhibition", "setting": "TNF alpha; [4]", "result": 46, "unit": "%"}, {"measurement": "TNFα", "setting": "TNF alpha; peptide 0.2 mg/ml, LPS 30 μg/ml, ZEP3 in 0.10% DMSO", "result": 13.1, "unit": "pg/mL"}, {"measurement": "Fold Change", "setting": "TNF alpha; [5]", "result": 4.7}, {"measurement": "% Inhibition", "setting": "TNF alpha; [5]", "result": 38, "unit": "%"}, {"measurement": "TNFα", "setting": "TNF alpha; peptide 0.4 mg/ml, LPS 20 μg/ml, ZEP3 in 0.10% DMSO", "result": 5.9, "unit": "pg/mL"}, {"measurement": "Fold Change", "setting": "TNF alpha; [6]", "result": 2.1}, {"measurement": "% Inhibition", "setting": "TNF alpha; [6]", "result": 52, "unit": "%"}]}
{"molecule": "C[C@@H](O)[C@H](NC(=O)[C@H](Cc1c[nH]c2ccccc12)NC(=O)[C@H](CC(N)=O)NC(=O)[C@@H]1CCC(=O)N1)C(=O)O", "note": "[ZEP4 sodium salt, pGlu-Asn-Trp-Thr-OH.nNa] (HELM PEPTIDE1{[Glp].N.W.T}$$$$V2.0)", "values": [{"measurement": "solubility", "setting": "physchem", "result": 50, "unit": "mg/mL"}]}
